The values that follow come from paper PMC2820364 (The Biochemical journal, 2008).

Test [1] has as its target p110β WT (Homo sapiens, UniProt P42338). Description: PI3K lipid kinase inhibition assay, wild-type p110β. Type of test: biochemical. Conditions: for selectivity for p110β relative to p110α (wild type): wild type enzymes.
Test [2] deals with p110α WT (Homo sapiens, UniProt P42336). Description: PI3K lipid kinase inhibition assay, wild-type p110α. Type of test: biochemical. Conditions: IC50 ratio p110α WT / p110β WT.
For test [3], the target named is p110α (H855E) (Homo sapiens, UniProt P42336, H855E). Put plainly: PI3K lipid kinase inhibition assay, p110α H855E mutant. It is filed as biochemical. Conditions: for Selectivity ratio α/β His↔Glu: IC50 ratio p110α-(H855E) / p110β-(E858H); for loss of potency at H857E-p110α relative to wild type: mutant printed as H857E.
Test [4] has as its target p110β (E858H) (Homo sapiens, UniProt P42338, E858H). Put plainly: PI3K lipid kinase inhibition assay, p110β E858H mutant. Type of test: biochemical.
Test [5] has as its target p110β (D862Q) (Homo sapiens, UniProt P42338, D862Q). Description: PI3K lipid kinase inhibition assay, p110β D862Q mutant. It is filed as biochemical.
For test [6], the target named is p110α (Q859D) (Homo sapiens, UniProt P42336, Q859D). Put plainly: PI3K lipid kinase inhibition assay, p110α Q859D mutant. Type of test: biochemical. To be noted: for Selectivity ratio α/β Gln↔Asp: IC50 ratio p110α-(Q859D) / p110β-(D862Q).
Test [7] has as its system p110β. To be noted: read-out: IC50 against p110β; 10μM ATP; ref Knight et al. 2006; cited from earlier work.

Sequence of p110β (D862Q) (P42338 whole entry D862Q, species assumed): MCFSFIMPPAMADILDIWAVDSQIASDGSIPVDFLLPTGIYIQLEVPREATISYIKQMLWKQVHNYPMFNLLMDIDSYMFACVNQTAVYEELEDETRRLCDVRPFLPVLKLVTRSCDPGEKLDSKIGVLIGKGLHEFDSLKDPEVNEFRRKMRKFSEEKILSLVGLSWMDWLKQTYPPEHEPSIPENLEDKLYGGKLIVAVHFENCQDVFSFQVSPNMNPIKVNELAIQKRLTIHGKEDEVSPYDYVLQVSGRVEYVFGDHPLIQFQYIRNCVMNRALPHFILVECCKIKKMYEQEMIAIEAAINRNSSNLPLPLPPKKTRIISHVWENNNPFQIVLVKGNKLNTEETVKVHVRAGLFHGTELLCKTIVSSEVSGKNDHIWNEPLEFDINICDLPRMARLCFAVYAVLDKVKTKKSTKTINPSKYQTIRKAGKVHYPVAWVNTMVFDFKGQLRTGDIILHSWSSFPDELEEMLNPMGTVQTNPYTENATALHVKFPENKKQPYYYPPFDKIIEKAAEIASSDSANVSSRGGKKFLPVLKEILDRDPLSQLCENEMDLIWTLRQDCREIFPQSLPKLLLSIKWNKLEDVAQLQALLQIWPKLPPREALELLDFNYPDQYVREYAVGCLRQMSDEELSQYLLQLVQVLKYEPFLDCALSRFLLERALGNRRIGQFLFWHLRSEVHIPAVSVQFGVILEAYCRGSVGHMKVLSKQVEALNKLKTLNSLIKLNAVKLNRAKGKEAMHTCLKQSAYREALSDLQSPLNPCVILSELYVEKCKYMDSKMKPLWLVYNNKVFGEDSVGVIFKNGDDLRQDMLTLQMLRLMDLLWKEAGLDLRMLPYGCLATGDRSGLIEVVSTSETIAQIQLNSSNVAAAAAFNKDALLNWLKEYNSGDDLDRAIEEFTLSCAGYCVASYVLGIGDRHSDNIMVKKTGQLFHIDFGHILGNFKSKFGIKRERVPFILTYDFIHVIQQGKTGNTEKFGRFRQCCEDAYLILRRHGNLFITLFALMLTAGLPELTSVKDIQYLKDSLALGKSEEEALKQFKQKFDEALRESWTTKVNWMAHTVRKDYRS
Sequence of p110β (D862Q) (P27986 whole entry partner, species assumed): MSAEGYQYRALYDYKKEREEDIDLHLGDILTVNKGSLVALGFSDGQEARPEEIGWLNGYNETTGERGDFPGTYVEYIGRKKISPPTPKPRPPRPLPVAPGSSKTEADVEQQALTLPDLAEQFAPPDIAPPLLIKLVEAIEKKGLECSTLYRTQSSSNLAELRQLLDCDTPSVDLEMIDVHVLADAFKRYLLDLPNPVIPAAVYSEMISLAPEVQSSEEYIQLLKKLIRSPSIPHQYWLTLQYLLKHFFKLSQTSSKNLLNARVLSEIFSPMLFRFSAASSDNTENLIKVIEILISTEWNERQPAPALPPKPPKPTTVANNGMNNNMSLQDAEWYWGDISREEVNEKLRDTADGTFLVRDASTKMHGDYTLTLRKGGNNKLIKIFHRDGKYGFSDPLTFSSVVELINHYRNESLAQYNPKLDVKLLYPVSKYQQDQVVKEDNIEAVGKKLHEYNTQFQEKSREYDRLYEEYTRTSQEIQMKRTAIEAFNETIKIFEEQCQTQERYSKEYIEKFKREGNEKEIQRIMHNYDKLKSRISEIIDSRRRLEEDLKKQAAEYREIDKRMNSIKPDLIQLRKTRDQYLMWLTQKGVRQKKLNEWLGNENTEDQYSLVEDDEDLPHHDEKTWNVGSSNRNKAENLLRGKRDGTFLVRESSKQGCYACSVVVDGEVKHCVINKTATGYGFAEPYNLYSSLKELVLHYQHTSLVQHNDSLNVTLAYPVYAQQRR
Sequence of p110α (H855E) (P42336 whole entry H855E, species assumed): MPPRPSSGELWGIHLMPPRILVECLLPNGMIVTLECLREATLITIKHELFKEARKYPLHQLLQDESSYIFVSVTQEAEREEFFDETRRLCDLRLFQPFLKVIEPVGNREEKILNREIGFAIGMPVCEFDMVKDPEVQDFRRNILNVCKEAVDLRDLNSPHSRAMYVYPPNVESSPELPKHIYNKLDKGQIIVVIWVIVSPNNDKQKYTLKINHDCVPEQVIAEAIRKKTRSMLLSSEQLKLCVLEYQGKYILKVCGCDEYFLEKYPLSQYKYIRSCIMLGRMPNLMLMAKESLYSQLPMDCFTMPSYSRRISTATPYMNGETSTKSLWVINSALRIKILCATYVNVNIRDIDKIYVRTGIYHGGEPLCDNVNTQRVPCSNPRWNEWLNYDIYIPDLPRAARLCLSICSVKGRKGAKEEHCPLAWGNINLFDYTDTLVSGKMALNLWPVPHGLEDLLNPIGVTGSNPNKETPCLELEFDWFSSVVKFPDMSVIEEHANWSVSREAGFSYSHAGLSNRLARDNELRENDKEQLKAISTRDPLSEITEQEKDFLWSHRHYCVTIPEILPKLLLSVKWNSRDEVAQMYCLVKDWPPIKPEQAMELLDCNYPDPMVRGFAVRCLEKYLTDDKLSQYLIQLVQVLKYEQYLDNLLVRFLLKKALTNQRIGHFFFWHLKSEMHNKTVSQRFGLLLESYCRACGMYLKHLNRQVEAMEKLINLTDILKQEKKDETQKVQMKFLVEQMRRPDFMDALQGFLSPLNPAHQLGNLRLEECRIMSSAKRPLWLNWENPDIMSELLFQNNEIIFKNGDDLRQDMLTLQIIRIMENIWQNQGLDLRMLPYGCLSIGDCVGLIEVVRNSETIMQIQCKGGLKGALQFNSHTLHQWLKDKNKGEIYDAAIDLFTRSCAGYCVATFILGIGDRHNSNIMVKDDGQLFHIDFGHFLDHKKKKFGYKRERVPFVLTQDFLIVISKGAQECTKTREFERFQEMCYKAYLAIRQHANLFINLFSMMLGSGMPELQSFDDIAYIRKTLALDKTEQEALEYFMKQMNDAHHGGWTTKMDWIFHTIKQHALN
Sequence of p110α (H855E) (P27986 whole entry partner, species assumed): as the sequence (P27986 whole entry partner, species assumed) above
Sequence of p110β (E858H) (P42338 whole entry E858H, species assumed): as the sequence (P42338 whole entry D862Q, species assumed) above, with E858H, Q862D counted along it
Sequence of p110β (E858H) (P27986 whole entry partner, species assumed): as the sequence (P27986 whole entry partner, species assumed) above
Sequence of p110β WT (P42338 whole entry): as the sequence (P42338 whole entry D862Q, species assumed) above, with Q862D counted along it
Sequence of p110β WT (P27986 whole entry partner): as the sequence (P27986 whole entry partner, species assumed) above
Sequence of p110α WT (P42336 whole entry): as the sequence (P42336 whole entry H855E, species assumed) above, with E855H counted along it
Sequence of p110α WT (P27986 whole entry partner): as the sequence (P27986 whole entry partner, species assumed) above
Sequence of p110α (Q859D) (P42336 whole entry Q859D, species assumed): as the sequence (P42336 whole entry H855E, species assumed) above, with E855H, Q859D counted along it
Sequence of p110α (Q859D) (P27986 whole entry partner, species assumed): as the sequence (P27986 whole entry partner, species assumed) above

Consider `O=c1cc(N2CCOCC2)oc2c(OCc3ccccc3)cccc12` [TGX102], for which the “selectivity for p110β relative to p110α (wild type)” value in test [1] was “approximately 4 fold”. The “Selectivity ratio α/β (wt)” value in test [2] stood at 4.30. Further, in test [3], the “Selectivity ratio α/β His↔Glu” value came out at 17.3 and the “loss of potency at H857E-p110α relative to wild type” value worked out at 3 fold. Further, in test [4] (compared with wild type p110β), the “effect of p110β E858H mutation on inhibition (in words)” value is listed as “indistinguishable from the wild type”. The “effect of p110β D862Q mutation on inhibition (in words)” value in test [5] (compared with wild type p110β) was “indistinguishable from the wild type”. In test [6], the “loss of potency at Q859D-p110α relative to wild type” value turned out to be 3 fold and the “Selectivity ratio α/β Gln↔Asp” value was determined as 12.65.
In the case of `O=c1cc(N2CCOCC2)oc2c(OCc3cccnc3)cccc12` [TGX132], the “Selectivity ratio α/β (wt)” value in test [2] is reported as 0.34. For the same compound, in test [3], the “Selectivity ratio α/β His↔Glu” value was found to be 3.56 and the “loss of potency at H857E-p110α relative to wild type” value was 5-6 fold. Also, in test [4], the “increase in potency at p110β-E858H relative to wild type” value is recorded as “approximately 2 fold”. The “increase in potency at p110β-D862Q relative to wild type” value in test [5] is recorded as “approximately 2 fold”. In addition, in test [6], the “loss of potency at Q859D-p110α relative to wild type” value is listed as 5-6 fold and the “Selectivity ratio α/β Gln↔Asp” value came to 4.59.
The IC50 is the concentration that inhibits the measured activity by half. On to TGX286, for which the “difference between literature IC50 and IC50 of this study at p110β” value in test [1] (0.12μM (Knight et al. 2006) v. 7nM) is on record as 17 fold. Further, the “selectivity for p110β relative to p110α (wild type)” value in test [1] was “over 140 fold”. In addition, the IC50 in test [7] was 120 nM. The “Selectivity ratio α/β (wt)” value in test [2] was found to be 142.0. Also, the “Selectivity ratio α/β His↔Glu” value in test [3] amounted to 106.4. In addition, in test [4], the “reduction in potency at p110β-E858H relative to wild type” value is recorded as “approximately 2 fold”. In test [5], the “reduction in potency at p110β-D862Q relative to wild type” value was “approximately 2 fold”. The “Selectivity ratio α/β Gln↔Asp” value in test [6] was 126.2.
